This is an account of results in US20230278984A1 (Global Blood Therapeutics, Inc., priority 2020, published 2023).

The assay deals with T1, Human pyruvate kinase R (PKR) (Homo sapiens, UniProt P30613).
T1 construct: Human pyruvate kinase R (PKR), residues 14-574; 6x-His (N, cleaved yes); 8x-Arg (N, cleaved yes); SUMO (N, cleaved yes); host or cells: E. coli
The assay is described as follows: Biochemical assay for activation of pyruvate kinase R (Kinase-Glo luminescence measurement of ATP generation). As to conditions: for AC50: PKR biochemical assay, 0.1 nM PKR, 0.3 mM ADP, 2 mM FBP, 0.1 mM PEP; for Emax: maximal activation level relative to the activation level achieved by the literature compound AG-348 @ 10 μM. The method, then: Human pyruvate kinase R (PKR), residues 14-574, and human pyruvate kinase M2, residues 1-531, were cloned into expression plasmids and obtained from ATUM Bio (Newark, Calif.). Proteins were translated as fusions with 6×-His, 8×-Arg, and SUMO at the N-terminus. A third construct of human PKR was truncated, residues 50-574, and similarly cloned for use in crystallography experiments. All proteins were cloned, expressed in E. coli, and purified using similar protocols. Cells were grown at 30° C. in Luria-Bertani broth supplemented with 0.4% glucose to OD600=0.8 and induced with 0.4 mM IPTG at 16° C. for 18 hours. Cells were harvested by centrifugation, resuspended in 50 mM potassium phosphate pH 8.0, 500 mM NaCl, 25 mM imidazole pH 8.0, and 3 mM (3-mercaptoethanol. Cells were lysed using a LM20 microfluidizer from Microfluidics (Westwood, Mass.). The crude lysate was immediately supplemented with 0.2 mM phenylmethylsulfonyl fluoride (PMSF) and centrifuged at 20,000 g for 20 minutes. The soluble fraction was subsequently incubated with 2 mL Ni-NTA (GE Healthcare) per 1,000 ODs for 1 hour at 4° C. Following incubation with the Ni-NTA resin, lysate was removed by pelleting resin at 2,500 g for 3 minutes and washed 3 times with 9 bed volumes of 50 mM potassium phosphate pH 8.0, 500 mM NaCl, 25 mM imidazole, and 3 mM 3-mercaptoethanol. Following the batch wash Ni-NTA resin was loaded onto a gravity column and His-tagged protein was eluted with 6 bed volumes of 10 mM Tris/HCl pH 8.0, 200 mM NaCl, 500 mM imidazole, and 3 mM (3-mercaptoethanol. Eluted protein was dialyzed overnight against 10 mM Tris/HCl pH 8.0, 200 mM NaCl, and 1 mM DTT and the 6×-His-8×-Arg-SUMO-tag was cleaved using a 20:1 molar ratio of protein:3C protease. The protein was purified by anion exchange chromatography on a HiTrapQ or MonoQ 10/100 GL column (GE Healthcare) via a linear NaCl gradient and twice by size exclusion chromatography using a Superdex S200 26/60 column (GE Healthcare) run in 10 mM Tris/HCl pH 8.0, 200 mM NaCl, 10 mM MgCl2, 1 mM DTT. Proteins were concentrated to −12 mg/mL for crystallization and flash frozen for storage.
Biochemical Assay for Activation of Pyruvate Kinase R
Activation of pyruvate kinase R (PKR) and pyruvate kinase M2 (PKM2) were measured using a luminescence based measurement of ATP generation and the Kinase-Glo luminescent kinase reagent kit.
In general terms: Kinase-Glo measures the ATP left after a reaction by luminescence.

As usually defined, the AC50 is the concentration giving half of the maximal activity seen. One may read the Emax as the maximal effect, on the per cent scale that the assay sets.

T1 sequence (P30613 14-574): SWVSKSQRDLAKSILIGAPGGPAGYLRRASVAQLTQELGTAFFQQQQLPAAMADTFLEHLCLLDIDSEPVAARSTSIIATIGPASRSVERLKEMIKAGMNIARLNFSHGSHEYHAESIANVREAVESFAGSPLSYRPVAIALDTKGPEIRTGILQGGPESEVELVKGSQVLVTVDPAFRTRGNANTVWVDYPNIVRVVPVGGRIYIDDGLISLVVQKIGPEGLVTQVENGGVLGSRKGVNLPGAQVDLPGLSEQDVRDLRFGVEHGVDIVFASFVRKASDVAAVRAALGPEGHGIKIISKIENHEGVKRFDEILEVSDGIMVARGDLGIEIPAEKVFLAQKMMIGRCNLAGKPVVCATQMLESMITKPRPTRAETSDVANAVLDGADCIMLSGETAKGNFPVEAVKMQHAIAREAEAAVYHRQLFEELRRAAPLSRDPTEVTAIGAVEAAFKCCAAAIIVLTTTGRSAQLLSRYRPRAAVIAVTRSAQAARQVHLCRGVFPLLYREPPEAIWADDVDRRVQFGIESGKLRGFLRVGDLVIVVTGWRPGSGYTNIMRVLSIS

`Cc1nc(CNC(=O)NCc2ncnn2CC2(O)CCCCC2)n(-c2ccc(Cl)c(F)c2)n1` [Compound 23, 3-{[1-(4-chloro-3-fluorophenyl)-3-methyl-1H-1,2,4-triazol-5-yl]methyl}-1-({1-[(1-hydroxycyclohexyl)methyl]-1H-1,2,4-triazol-5-yl}methyl)urea] showed an AC50 of 230 nM and an Emax of 72%.

In turn, `Cc1nc(CNC(=O)NCc2ncnn2-c2ccc3c(c2)OCC3)n(-c2ccc(Cl)c(F)c2)n1` [Compound 24, 3-{[1-(4-chloro-3-fluorophenyl)-3-methyl-1H-1,2,4-triazol-5-yl]methyl}-1-{[1-(2,3-dihydro-1-benzofuran-6-yl)-1H-1,2,4-triazol-5-yl]methyl}urea] had an AC50 of 24 nM and an Emax of 75%.

Turning to `O=C(NCc1nnnn1-c1ccc(Cl)cc1F)NCc1nnnn1-c1ccc(Cl)cc1F` [Compound 25, 1,3-bis({[1-(4-chloro-2-fluorophenyl)-1H-1,2,3,4-tetrazol-5-yl]methyl})urea], the AC50 was determined as 2500 nM and the maximal response (Emax) stood at 80%.

For `CN(Cc1nnnn1-c1ccc(Cl)c(F)c1)C(=O)NCc1nnnn1-c1ccc(Cl)c(F)c1` [Compound 26, 1,3-bis({[1-(4-chloro-3-fluorophenyl)-1H-1,2,3,4-tetrazol-5-yl]methyl})-1-methylurea], half-maximal activity (AC50) was put at 73 nM and the Emax came out at 93%.

Take `CN(Cc1ncnn1-c1ccc(Cl)c(F)c1)C(=O)NCc1ncnn1-c1ccc(Cl)c(F)c1` [Compound 27, 1,3-bis({[1-(4-chloro-3-fluorophenyl)-1H-1,2,4-triazol-5-yl]methyl})-1-methylurea]: the AC50 was 5.4 nM and the Emax amounted to 33%.

In turn, `CN(Cc1ncnn1-c1ccc(Cl)c(F)c1)C(=O)N(C)Cc1ncnn1-c1ccc(Cl)c(F)c1` [Compound 28, 1,3-bis({[1-(4-chloro-3-fluorophenyl)-1H-1,2,4-triazol-5-yl]methyl})-1,3-dimethylurea] returned an AC50 of 1200 nM and an Emax of 29%.

In turn, `Cc1ccc2ccc(-n3ncnc3CNC(=O)NCc3nc(C)nn3-c3ccc(Cl)c(F)c3)cc2n1` [Compound 29, 3-{[1-(4-chloro-3-fluorophenyl)-3-methyl-1H-1,2,4-triazol-5-yl]methyl}-1-{[1-(2-methylquinolin-7-yl)-1H-1,2,4-triazol-5-yl]methyl}urea] came in with an AC50 of 110 nM and an Emax of 78%.

As for `CCN(Cc1ncnn1-c1ccc(Cl)c(F)c1)C(=O)NCc1ncnn1-c1ccc(Cl)c(F)c1` [Compound 30, 1,3-bis({[1-(4-chloro-3-fluorophenyl)-1H-1,2,4-triazol-5-yl]methyl})-1-ethylurea], the activity was half-maximal at 18 nM (AC50) and the Emax came to 48%.

As for `O=C(NCc1ncnn1-c1ccc(Cl)c(F)c1)NCc1nnnn1-c1ccc(Cl)c(F)c1` [Compound 31, 3-{[1-(4-chloro-3-fluorophenyl)-1H-1,2,3,4-tetrazol-5-yl]methyl}-1-{[1-(4-chloro-3-fluorophenyl)-1H-1,2,4-triazol-5-yl]methyl}urea], the activity was half-maximal at 14 nM (AC50) and the Emax came out at 76%.

Take `CN(Cc1nnnn1-c1ccc(Cl)c(F)c1)C(=O)NCc1ncnn1-c1ccc(Cl)c(F)c1` [Compound 32, 1-{[1-(4-chloro-3-fluorophenyl)-1H-1,2,3,4-tetrazol-5-yl]methyl}-3-{[1-(4-chloro-3-fluorophenyl)-1H-1,2,4-triazol-5-yl]methyl}-1-methylurea]: the AC50 worked out at 210 nM and the maximal effect (Emax) worked out at 74%.

For `CN(Cc1ncnn1-c1ccc(Cl)c(F)c1)C(=O)NCc1nnnn1-c1ccc(Cl)c(F)c1` [Compound 33, 1-{[1-(4-chloro-3-fluorophenyl)-1H-1,2,3,4-tetrazol-5-yl]methyl}-3-{[1-(4-chloro-3-fluorophenyl)-1H-1,2,4-triazol-5-yl]methyl}-3-methylurea], the activity was half-maximal at 9 nM (AC50) and the Emax came out at 67%.

Turning to `O=C(NCc1ncnn1-c1ccc(Cl)c(F)c1)N(CCO)Cc1nnnn1-c1ccc(Cl)c(F)c1` [Compound 34, 1-{[1-(4-chloro-3-fluorophenyl)-1H-1,2,3,4-tetrazol-5-yl]methyl}-3-{[1-(4-chloro-3-fluorophenyl)-1H-1,2,4-triazol-5-yl]methyl}-1-(2-hydroxyethyl)urea], the AC50 turned out to be 830 nM and the Emax was found to be 89%.

`O=C(NCc1ncnn1-c1ccc(Cl)c(F)c1)NCc1ncnn1-c1nc2cc(Cl)ccc2s1` [Compound 35, 1-{[1-(5-chloro-1,3-benzothiazol-2-yl)-1H-1,2,4-triazol-5-yl]methyl}-3-{[1-(4-chloro-3-fluorophenyl)-1H-1,2,4-triazol-5-yl]methyl}urea] registered an AC50 of 3200 nM and an Emax of 28%.

The compound `CCN(Cc1ncnn1-c1ccc(Cl)c(F)c1)C(=O)NCc1nnnn1-c1ccc(Cl)c(F)c1` [Compound 36, 3-{[1-(4-chloro-3-fluorophenyl)-1H-1,2,3,4-tetrazol-5-yl]methyl}-1-{[1-(4-chloro-3-fluorophenyl)-1H-1,2,4-triazol-5-yl]methyl}-1-ethylurea] came in with an AC50 of 130 nM and an Emax of 95%.

As to `O=C(NCc1ncnn1-c1ccc(Cl)c(F)c1)N(CCF)Cc1ncnn1-c1ccc(Cl)c(F)c1` [Compound 38, 1,3-bis({[1-(4-chloro-3-fluorophenyl)-1H-1,2,4-triazol-5-yl]methyl})-1-(2-fluoroethyl)urea], half-maximal activity (AC50) was put at 55 nM and the Emax turned out to be 53%.

For `Cc1nc(CNC(=O)NCc2ncnn2-c2ccc3ccncc3c2)n(-c2ccc(Cl)c(F)c2)n1` [Compound 39, 3-{[1-(4-chloro-3-fluorophenyl)-3-methyl-1H-1,2,4-triazol-5-yl]methyl}-1-{[1-(isoquinolin-7-yl)-1H-1,2,4-triazol-5-yl]methyl}urea], the AC50 was found to be 51 nM and the Emax is 63%.

`Cc1nc(CNC(=O)NCc2ncnn2-c2ccc3nccnc3c2)n(-c2ccc(Cl)c(F)c2)n1` [Compound 40, 3-{[1-(4-chloro-3-fluorophenyl)-3-methyl-1H-1,2,4-triazol-5-yl]methyl}-1-{[1-(quinoxalin-6-yl)-1H-1,2,4-triazol-5-yl]methyl}urea] had an AC50 of 150 nM and an Emax of 73%.

As for `Cc1nc(CNC(=O)NCc2ncnn2-c2ccc3ncccc3c2)n(-c2ccc(Cl)c(F)c2)n1` [Compound 41, 1-{[1-(4-chloro-3-fluorophenyl)-3-methyl-1H-1,2,4-triazol-5-yl]methyl}-3-{[1-(quinolin-6-yl)-1H-1,2,4-triazol-5-yl]methyl}urea], the activity was half-maximal at 40 nM (AC50) and the maximum response (Emax) was determined as 81%.

`CC(C)c1nc(CNC(=O)NCc2ncnn2-c2ccc3cccnc3c2)n(-c2ccc(Cl)c(F)c2)n1` [Compound 42, 1-{[1-(4-chloro-3-fluorophenyl)-3-(propan-2-yl)-1H-1,2,4-triazol-5-yl]methyl}-3-{[1-(quinolin-7-yl)-1H-1,2,4-triazol-5-yl]methyl}urea] came in with an AC50 of 540 nM and an Emax of 74%.

`Cc1nc(CNC(=O)NCc2ncnn2-c2cnc3cccnc3c2)n(-c2ccc(Cl)c(F)c2)n1` [Compound 43, 1-{[1-(4-chloro-3-fluorophenyl)-3-methyl-1H-1,2,4-triazol-5-yl]methyl}-3-{[1-(1,5-naphthyridin-3-yl)-1H-1,2,4-triazol-5-yl]methyl}urea] gave an AC50 of 100 nM and an Emax of 84%.

Turning to `Cc1nc(CNC(=O)NCc2ncnn2-c2ccc3c(c2)ncn3C)n(-c2ccc(Cl)c(F)c2)n1` [Compound 44, 1-{[1-(4-chloro-3-fluorophenyl)-3-methyl-1H-1,2,4-triazol-5-yl]methyl}-3-{[1-(1-methyl-1H-1,3-benzodiazol-5-yl)-1H-1,2,4-triazol-5-yl]methyl}urea], the activity was half-maximal at 81 nM (AC50) and the Emax is 94%.

For the compound `CCc1nc(CNC(=O)NCc2ncnn2-c2ccc3cccnc3c2)n(-c2ccc(Cl)c(F)c2)n1` [Compound 45, 1-{[1-(4-chloro-3-fluorophenyl)-3-ethyl-1H-1,2,4-triazol-5-yl]methyl}-3-{[1-(quinolin-7-yl)-1H-1,2,4-triazol-5-yl]methyl}urea], half-maximal activity (AC50) was put at 110 nM and the Emax is 80%.
